The experiment has as its system 996289-038-R-J1-PDC spheroid viability. The experiment can be described thus: Anticancer human tumor 996289-038-R-J1-PDC patient-derived colon adenocarcinoma cell line growth inhibition [PI3K]. To be noted: spheroids with HUVEC and MSC; for viability, T/C: stronger effect = lower value. An excerpt:
Combinatorial screen of targeted agents with the PI3K inhibitors inavolisib, alpelisib, duvelisib, and copanlisib in multi-cell type tumor spheroids
A high-throughput screen of multi-cell type tumor spheroids was designed to identify active combinations of targeted small molecules and PI3K pathway inhibitors. Complex spheroids include a stromal component modeled by human endothelial cells (HUVEC) and fibroblasts modeled by human mesenchymal stem cells (MSCs). The concentration ranges selected for each drug and investigational agent were based upon clinically achievable concentrations if the clinical Cmax of the agent was known.
Compounds. The drugs and investigational agents: inavolisib (NSC800729), alpelisib (NSC765974), duvelisib (NSC772469), copanlisib (NSC816437), ipatasertib (NSC767898), afuresertib (NSC778305), talazoparib (NSC767125), sapanisertib (NSC764658), selumetinib (NSC741078), tovorafenib (DAY101, NSC766906), vemurafenib (NSC761431), ravoxertinib (NSC781343), sotorasib (NSC818433), MRTX1133 (NSC 836407), abemaciclib (NSC 768073), palbociclib (NSC758247), venetoclax (NSC 766270), SY5609 (NSC837396), enzalutamide (NSC755605), and darolutamide (NSC825331), were obtained from the National Cancer Institute (NCI) Developmental Therapeutics Program Chemical Repository. The FDA-approved anticancer drug set is available from the NCI Developmental Therapeutics Program. […] The stock solutions were prepared in dimethyl sulfoxide (DMSO, Sigma-Aldrich, St. Louis, MO, cat. D2650) at 800-fold the tested concentration and stored at -70 degrees C prior to their use. All drugs and investigational agents were tested over a range starting from a high concentration at or near the clinical Cmax and decreasing in half-log increments. If the clinical Cmax for an agent had not been determined, the highest concentration tested was 10 microM.
Cell Culture. All cells were maintained in an incubator at 37 degrees C and 5% CO2 with 95% humidity. The PDC lines were cultured according to standard operating procedures established by the NCI PDMR (https://pdmr.cancer.gov/sops/default.htm). All PDCs were thawed and cultured in Matrigel-coated flasks prepared with a working solution of 1X Ham's F-12 nutrient mix, without supplementation (Invitrogen, Waltham, MA, cat. 11765054), 100 U/mL penicillin-streptomycin (Invitrogen, cat. 15140122), and 2.5% Matrigel (Corning Inc., Corning, NY, cat. 354248) for the first three passages. The 354836-022-R-J1-PDC, 475296-252-R-J1-PDC, and 997726-040-R-J2-PDC lines were cultured in 6A media, which includes advanced DMEM/F-12 (Thermo Fisher Scientific, cat. 12634028), 10 mM HEPES (Thermo Fisher Scientific, cat. 15630080), 1X GlutaMAX supplement (Thermo Fisher Scientific, cat. 35050061), 0.1 mg/mL primocin (InvivoGen, San Diego, CA, cat. ant-pm-2), 10% defined fetal bovine serum, heat inactivated (HyClone Laboratories Inc., Logan, UT, cat. SH30070.03HI), 50% L-WRN conditioned media (ATCC, cat. CRL-3276), 1.25 mM N-Acetyl-L-cysteine (Sigma-Aldrich, cat. A9165), 10 mM nicotinamide (Sigma-Aldrich, cat. N0636), 1X B-27 supplement (Thermo Fisher Scientific, cat. 17504044), 1X N-2 supplement (Thermo Fisher Scientific, cat. 17502048), and 10 microM Y-27632 dihydrochloride (Tocris Bioscience, Bristol, United Kingdom, cat. 1254). The 624824-186-R-J2-PDC line was cultured in 6C/Colon 1B media, which includes all 6A media components plus 50 ng/mL human EGF recombinant protein (Thermo Fisher Scientific, cat. PHG0311). […]

Structures are written as SMILES. Values joined by “and” are separate entries in the source; they are usually repeats but may differ in a detail not shown here. Equal values may be shown once.

By viability, T/C is commonly meant the ratio of treated to control. The IC50 is the concentration at which inhibition is half-maximal.
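Further: spheroids exposed to compounds for seven days before viability read.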
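Wherever viability, T/C is given: luminescence used as a proxy for viable cell amount; percent viability relative to DMSO vehicle control as 100%.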

On to `CC(=O)c1c(C)c2cnc(Nc3ccc(N4CCNCC4)cn3)nc2n(C2CCCC2)c1=O`, for which the viability, T/C (compound 0.000316 µM) was 104% [middle of 4 runs]; the viability, T/C (compound 0.001 µM) was 96.8% [middle of 4 runs]; the viability, T/C (compound 0.01 µM) was 95.5% [middle of 4 runs]; the viability, T/C (compound 0.0316 µM) was 96% and 101% (2×) and 91.4%; the viability, T/C (compound 0.1 µM) was 87.6% [middle of 4 runs]. For the same compound, the IC50 (curve of compound) was above 100 nM.

`CC(C)n1nc(-c2ccc3oc(N)nc3c2)c2c(N)ncnc21`: the viability, T/C runs as follows: (compound 0.000316 µM) 105% [middle of 4 runs]; (compound 0.001 µM) 85.2% [middle of 4 runs]; (compound 0.00316 µM) 89.4% [middle of 4 runs]; (compound 0.01 µM) 88.6% [middle of 4 runs]; (compound 0.0316 µM) 67% [middle of 4 runs]; (compound 0.1 µM) 35.7% [middle of 4 runs]. For the setting “curve of compound”, the IC50 is 58.6 nM [middle of 4 runs].

Regarding `CC(Nc1ccc2c(c1)OCCn1cc(N3C(=O)OCC3C(F)F)nc1-2)C(N)=O` (configuration not stated), the viability, T/C was 105% [middle of 8 runs] (compound 0.00316 µM); 95.4% [middle of 8 runs] (compound 0.0316 µM); 90.3% [middle of 8 runs] (compound 0.1 µM); 80% [middle of 8 runs] (compound 0.316 µM); 67.5% [middle of 8 runs] (compound 1 µM). Besides, the IC50 (compound alone, run of 06/12/2023) is above 1000 nM.

Regarding `CCN1CCN(Cc2ccc(Nc3ncc(F)c(-c4cc(F)c5nc(C)n(C(C)C)c5c4)n3)nc2)CC1`, the viability, T/C was 99.6% [middle of 4 runs] (compound 0.00316 µM); 91.2% [middle of 4 runs] (compound 0.01 µM); 94% [middle of 4 runs] (compound 0.0316 µM); 85.2% [middle of 4 runs] (compound 0.1 µM); 85.7% [middle of 4 runs] (compound 0.316 µM); 85.3% [middle of 4 runs] (compound 1 µM). Further, the concentration for half-maximal inhibition (IC50) (curve of compound) was above 1000 nM.

For `COc1c(OCCCN2CCOCC2)ccc2c3n(c(=NC(=O)c4cnc(N)nc4)nc12)CCN3`, the viability, T/C was 96.3% [middle of 8 runs] (compound 0.00316 µM); 96.2% [middle of 8 runs] (compound 0.01 µM); 76.4% [middle of 8 runs] (compound 0.0316 µM); 61.7% [middle of 8 runs] (compound 0.1 µM); 36.1% [middle of 8 runs] (compound 0.316 µM); 21.6% [middle of 8 runs] (compound 1 µM). The IC50 (compound alone, run of 06/13/2023) is 162 nM [middle of 8 runs].

As to `Cc1nc(NC(=O)N2CCCC2C(N)=O)sc1-c1ccnc(C(C)(C)C(F)(F)F)c1` (configuration not stated), the viability, T/C is, setting by setting: (compound 0.0316 µM) 99.9% [middle of 8 runs]; (compound 0.1 µM) 94.7% [middle of 8 runs]; (compound 0.316 µM) 85.8% [middle of 8 runs]; (compound 1 µM) 73.9% [middle of 8 runs]; (compound 3.16 µM) 61.8% [middle of 8 runs]; (compound 10 µM) 52.6% [middle of 8 runs].

As to `Cn1cnc2c(F)c(Nc3ccc(Br)cc3Cl)c(C(=O)NOCCO)cc21`, the viability, T/C reads like this: (compound 0.00949 µM) 89.3% [middle of 4 runs]; (compound 0.03 µM) 74.7% [middle of 4 runs]; (compound 0.0949 µM) 64% [middle of 4 runs]; (compound 0.3 µM) 44.4% [middle of 4 runs]; (compound 0.949 µM) 35.1% [middle of 4 runs]; (compound 3 µM) 24.5% [middle of 4 runs]. Besides, the half-maximal inhibitory concentration (IC50) (curve of compound) was 229 nM [middle of 4 runs].

Turning to `Cn1ncnc1[C@H]1c2n[nH]c(=O)c3cc(F)cc(c23)N[C@@H]1c1ccc(F)cc1`, the viability, T/C (compound 0.001 µM) was 105% [middle of 4 runs]; the viability, T/C (compound 0.00316 µM) was 103% [middle of 4 runs]; the viability, T/C (compound 0.01 µM) is 100% [middle of 4 runs]; the viability, T/C (compound 0.0316 µM) is 109% [middle of 4 runs]; the viability, T/C (compound 0.1 µM) was 98.9% [middle of 4 runs]. Also, the IC50 (curve of compound) was above 100 nM.

These data come from PubChem BioAssay AID1963965 (Molecular Pharmacology Branch, DTP, NCI, 2024).
